The source of these data is article PMC2279149, “Mouse N-acetyltransferase type 2, the homologue of human N-acetyltransferase type 1” (Biochemical Pharmacology, 2008).

Read-outs that look alike come from different tables or passages of the source.

The target in data set [1] is T1, mouse Nat2 (Mus musculus, UniProt P50295).
T1 construct: The mouse Nat2 open-reading frame [22] was sub-cloned into pET28b(+); hexa-histidine tag (His-tag, from pET28b(+)) (N, cleaved yes); made in house; host or cells: Escherichia coli Rosetta(DE3)pLysS
T1 sequence (P50295 1-290): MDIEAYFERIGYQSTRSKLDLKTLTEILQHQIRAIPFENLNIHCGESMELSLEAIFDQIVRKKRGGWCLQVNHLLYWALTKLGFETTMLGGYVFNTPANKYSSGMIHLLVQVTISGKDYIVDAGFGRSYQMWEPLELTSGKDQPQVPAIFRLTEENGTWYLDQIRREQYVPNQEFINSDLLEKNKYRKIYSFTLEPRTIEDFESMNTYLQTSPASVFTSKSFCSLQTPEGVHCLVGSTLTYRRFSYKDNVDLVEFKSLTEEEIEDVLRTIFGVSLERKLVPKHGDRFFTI
Kind of data set: Substrate specific activity of mouse Nat2 (rate of CoA production, DTNB). Format: biochemical. The settings on record: substrate 500 μM, AcCoA 400 μM, 25 °C, pH 8.0. On the procedure:
The rate of production of the free thiol Coenzyme A by NAT, in the presence of a range of known NAT acetyl-acceptor substrates, was determined by using Ellman's reagent, 5,5′-dithio-bis(2-nitrobenzoic acid) (DTNB) as previously described [[2,26]]. The substrate (500 μM) and purified recombinant NAT were pre-incubated (25 °C, 5 min) in 96-well flat-bottomed polystyrene plates (Costar®, Corning Inc.) in 20 mM Tris–HCl (pH 8.0). AcCoA (400 μM) was added to start the reaction in a final volume of 100 μL. The reaction was quenched with the addition of 25 μL of guanidine–HCl solution (6.4 M guanidine–HCl, 0.1 M Tris–HCl (pH 7.3)) containing 5 mM DTNB. The absorbance at 405 nm was measured on a plate-reader (Sunrise, Tecan). Assay buffer was used to replace substrate, AcCoA or NAT for control reactions. The amount of CoA produced in the assay was determined in comparison with a CoA standard curve.
Substrate abbreviations used for the substrate selectivity assays are as follows: aniline (ANL), 4-aminobenzoic acid (PABA), 4-aminosalicylic acid (4AS), 5-aminosalicylic acid (5AS), 4-chloroaniline (CLA), 4-bromoaniline (BRA), 4-iodoaniline (IOA), 4-methoxyanline (ANS), 4-ethoxyaniline (EOA), 4-butoxyanline (BOA), 4-hexyloxyaniline (HOA), 4-phenoxyaniline (POA), 4-aminoveratrole (4AV), 2-aminofluorene (2AF), 4-aminobenzoyl-L-glutamate (pABGlu), sulfamethazine (SMZ), procainamide (PRO), 4-aminopyridine (APY), isoniazid (INH), hydralazine (HDZ) and phenylhydrazine (PHZ). The stock concentration of substrate was 100 mM dissolved in DMSO, such that the final concentration of DMSO was less than 5% in the assays. DMSO only controls were carried out.
Fig. 2 Comparison of the substrate specific activity profiles of mouse Nat2, human NAT1 and human NAT2. The substrate specific activity profiles for mouse Nat2 (grey bars), human NAT1 (cross-hatched bars) and human NAT2 (black bars) are shown. The activity of mouse Nat2 was determined by measuring the rate of CoA production, as described in Section 2. Purified mouse Nat2 (0.125 μg) was incubated with arylamine substrate (each at 500 μM) and AcCoA (400 μM) in assay buffer (20 mM Tris–HCl (pH 8.0)) containing 0.5% (v/v) DMSO at 25 °C. The specific activities were determined from the linear initial rates of reaction. All measurements were performed in triplicate and are expressed as mean ± standard deviation relative to the most rapidly acetylated substrate. The human NAT1 and NAT2 data are taken from. The abbreviations are defined in Section 2.
The rate of hydrolysis of AcCoA was measured in the presence of a wide range of acetyl-acceptors (known NAT substrates, at 500 μM) and mouse Nat2 as described in the Methods section and Supplementary Fig. 1. The assays were performed in the presence of 5% (v/v) DMSO.

The target of data set [2] is T1, mouse Nat2. Kind of data set: Inhibition of mouse Nat2 acetylation of PABA (colorimetric DMAB assay). The data set is classed as biochemical. On the procedure: The rates of arylamine acetylation by NATs were determined colorimetrically as previously described, but with minor modifications. Each assay contained the enzyme, arylamine substrate (see each figure legends for concentrations) and AcCoA (400 μM) in a total volume of 100 μL in assay buffer (20 mM Tris–HCl (pH 8.0), 1 mM DTT). Initially, the enzyme and substrate mixtures were pre-incubated at 25 °C for 5 min and AcCoA was added to start the reaction. The reaction was quenched using 20% (w/v) trichloroacetic acid (TCA) at different time intervals. The stopped reaction was centrifuged (16,000 × […], 10 min) to pellet the precipitated proteins. The stopped reaction mixture (200 μL) was added to 800 μL of 5% (w/v) 4-(N,N-dimethylamino)benzaldehyde (DMAB) in 9:1 acetonitrile:water to develop the colour. The absorption at 450 nm was measured with a Hitachi U-2001 UV–vis spectrophotometer, with the amount of residual substrate in the reaction was determined by comparison with a standard curve.
The inhibitory effect of steroids on the rate of acetylation of arylamines by mouse Nat2 was measured by using the colorimetric DMAB assay as described in Section 2. Test compounds (50 μM, 2% DMSO unless specified) were pre-incubated with recombinant mouse Nat2 (3 ng) and PABA (75 μM) for 10 min at room temperature. AcCoA (400 μM) was added to start the reaction and the reaction mixture was incubated at 37 °C. The total reaction volume was 100 μL. Reactions were stopped at various time intervals by the addition of 100 μL of 20% (w/v) TCA. The colour was developed and measured as described in Section 2. The linear initial rate of reaction was determined and the percentage inhibition was calculated relative to the control activity measured without the inhibitor. All measurements were performed in triplicate and are expressed as mean ± standard deviation. *2% (v/v) ethanol **5% (v/v) DMSO used to dissolve the compounds in the assay.

The target in data set [3] is T1, mouse Nat2. Kind of data set: 1D 1H NMR titration of mouse Nat2 with ligand. Format: binding. The settings on record: 8 equivalents of bisphenol A; 20 °C, pH 7.0. On the procedure: 1D ^1H NMR spectra for hamster and mouse Nat2 were collected at 20 °C using a jump-return sequence. This sequence enabled the observation of H^N peaks which exchange to a significant extent with H2O. Spectra were collected using a 600 MHz spectrometer using a sweep width of 12,500 Hz. Unlabelled hamster and mouse Nat2 were used at a concentration of 10 mg/mL in the buffer described above. The titration of mouse Nat2 with bisphenol A was carried out by stepwise addition of small volumes (5–20 μL) of a concentrated solution of bisphenol A (100 mM in deuterated DMSO) to the mouse Nat2 solution in the NMR tube. The highest concentration of DMSO in the sample used was 2.8%. DMSO alone had no effect on the NMR spectrum of mouse Nat2 using concentrations up to 5%.

Details of data set [4]: method as in PMID 11502892. Particulars: after a soy-based meal; cited from earlier work.
For data set [5] the following is noted: cited from earlier work.
Setting [6] is: steroidogenic compounds, inhibitor 1–500 μM, recombinant mouse Nat2 3 ng, PABA 75 μM, AcCoA 400 μM, 37 °C, read-out: IC50.
The mark [7] stands for this setting: xenobiotic oestrogens, recombinant mouse Nat2 3 ng, PABA 75 μM, AcCoA 400 μM, 37 °C, read-out: IC50 mNAT2.

Regarding `Nc1ccc2c(c1)Cc1ccccc1-2` [2AF, 2-aminofluorene], the “Specific activity of mouse Nat2 with substrate” value (shortened to “Specific activity of mouse Nat2”) in data set [1] is listed as “high specific activities”; in data set [1] (listed as 2-aminofluorene) it was “readily acetylates”.

In the case of `Nc1ccc(C(=O)O)c(O)c1` [4AS, 4-aminosalicylic acid], in data set [1], the “Specific activity of mouse Nat2” value is given as “high specific activities”.

Turning to `Nc1ccc(O)c(C(=O)O)c1` [5AS, 5-aminosalicylic acid], the “Specific activity of mouse Nat2” value in data set [1] is listed as “high specific activities”.

With `CC(=O)[C@@]1(O)CC[C@H]2[C@@H]3CCC4=CC(=O)CC[C@]4(C)[C@H]3CC[C@@]21C` [17-Hydroxy-progesterone], the IC50 (commonly the concentration needed to halve the response being measured) in data set [2] (setting [6]) is more than 500 µM.

Turning to `C[C@]12CC[C@@H]3c4ccc(O)cc4CC[C@H]3[C@@H]1CC[C@@H]2O` [17-Hydroxy-β-estradiol], the concentration for half-maximal inhibition (IC50) in data set [2] (setting [6]) stood at 55 ± 5 µM.

For the molecule `C[C@H]1CCC[C@H](O)CCC/C=C/c2cc(O)cc(O)c2C(=O)O1` [Alpha-Zearalenol], the half-maximal inhibitory concentration (IC50) in data set [2] (setting [7]) was 70 ± 10 µM.

On to `C[C@]12CCC(=O)C=C1CC[C@@H]1[C@@H]2CC[C@]2(C)C(=O)CC[C@@H]12` [Androsteinedione], for which the 50% inhibitory concentration (IC50) in data set [2] (setting [6]) was more than 500 µM.

As for `C[C@H]1CCC[C@@H](O)CCC/C=C/c2cc(O)cc(O)c2C(=O)O1` [Beta-Zearalenol], in data set [2] (setting [7]), the IC50 amounted to 450 ± 10 µM.

For `CC(C)(c1ccc(O)cc1)c1ccc(O)cc1` [Bisphenol A], in data set [2] (setting [7]), the 50% inhibitory concentration (IC50) worked out at 290 ± 10 µM. Further, in data set [3], the “Change in chemical shift of histidine peak 1 (downfield)” value is reported as approximately 0.12 ppm and the “Change in chemical shift of histidine peak 4 (upfield)” value was approximately 0.08 ppm.

Regarding `C[C@]12CC[C@@H]3c4ccc(O)cc4CC[C@H]3[C@@H]1CCC2=O` [Estrone], in data set [2] (setting [6]), the IC50 came out at 370 ± 10 µM.

The molecule `O=c1c(-c2ccc(O)cc2)coc2cc(O)cc(O)c12` [Geni stein, genistein] registered an IC50 in data set [2] of 45 ± 5 µM. Further, the Circulating plasma concentration in data set [4] was not above 18 µM.

Consider `NNc1nncc2ccccc12` [HDZ, hydralazine], for which, in data set [1], the “Specific activity of mouse Nat2” value is recorded as “low specific activities”.

As for `NNC(=O)c1ccncc1` [INH, isoniazid], the “Specific activity of mouse Nat2” value in data set [1] is “low specific activities”.

Turning to `Nc1ccc(C(=O)O)cc1` [PABA, 4-aminobenzoic acid], the “Specific activity of mouse Nat2” value in data set [1] is reported as “high specific activities”.

In the case of `NNc1ccccc1` [PHZ, phenylhydrazine], in data set [1], the “Specific activity of mouse Nat2” value is on record as “low specific activities”.

On to `CC(=O)[C@H]1CC[C@H]2[C@@H]3CC=C4C[C@@H](O)CC[C@]4(C)[C@H]3CC[C@]12C` [Pregnelone], for which the IC50 in data set [2] (setting [6]) is more than 100 µM.

As to `CC/C(=C(\c1ccccc1)c1ccc(OCCN(C)C)cc1)c1ccccc1` [Tamoxifen], the Intratumoral level entry in data set [5] was “micromolar concentrations”.

Consider `C[C@]12CC[C@H]3[C@@H](CCC4=CC(=O)CC[C@@]43C)[C@@H]1CC[C@@H]2O` [Testosterone], for which the IC50 in data set [2] (setting [6]) was more than 500 µM.

`C[C@H]1CCCC(=O)CCC/C=C/c2cc(O)cc(O)c2C(=O)O1` [Zearalenone]: the half-maximal inhibitory concentration (IC50) in data set [2] came out at 220 ± 10 µM.

Regarding `CCN(CC)CCNC(=O)c1ccc(N)cc1` [procainamide], the “Specific activity of mouse Nat2” value in data set [1] is given as “low specific activities”.

Consider `Cc1cc(C)nc(NS(=O)(=O)c2ccc(N)cc2)n1` [sulfamethazine], for which the “Specific activity of mouse Nat2” value in data set [1] is listed as “low specific activities”.
